Experimental data reported in patent US20230416238A1, “N-[(1,3-BENZOXAZOL-2-YL)-HETEROCYCLE]AMIDE DERIVATIVES FOR THE TREATMENT AND PROPHYLAXIS OF HEPATITIS B VIRUS INFECTION” (Hoffmann-La Roche Inc., priority 2020, published 2023).

What was measured:
Format in all cases: cell-based
HBeAg = test: PHH HBV natural infection assay, HBeAg (alphalisa); details: Hepatitis B virus, Hepatocyte, read-out: HBeAg IC50
Protocol: (§1) Detailed procedures regarding primary human hepatocyte (PHH) HBV natural infection assay are described as below. One tube of frozen PHH (10 million cells) is thawed in 37° C. water bath and then transferred to 20 mL of PHH thawing medium (Sigma, InVitroGRO HT Medium, Cat. S03319) with gently mixing. The cells were then centrifuged at […] for 5 min, the supernatant was discarded and the tube was refilled with 25 mL of PHH plating medium (Sigma, InVitroGRO CP Medium, Cat. S03317). The tube was shaken very gently to re-suspend all cells, and then 50 μL of cells were transferred to each well 384-well collagen I coated plate with appropriate liquid handling equipment, e.g. Integra VIAFLO384 or Agilent Bravo. The cells were then cultured for 24 hours in a cell incubator. For HBV infection, after PHH attachment on the culture plate, the plating medium was removed and replenished with PHH culture medium containing HBV virus. The PHH culture medium was prepared with Dulbecco's Modified Eagle Medium (DMEM)/F12 (1:1 in volume ratio) containing 10% fetal bovine serum (Gibco, Cat. 10099141), 5 ng/mL human epidermal growth factor (Gibco, Cat. PHG0311L), 20 ng/mL dexamethasone (Sigma, Cat. D4902-100 mg), 250 ng/mL human recombinant insulin (Gibco, Cat. 41400045) and 100 U/mL penicillin. HBV virus at 200 genome equivalent (GE) per cell with 4% PEG8000 (Sigma, Cat. P1458) containing culture medium were added to the PHH culture medium for infection. The cells were then cultured for 24 hours in cell incubator. Then the cell culture supernatant was removed. The HBV-infected PHH were cultured with sandwich culture method with MEI culture medium containing 1% DMSO and 0.25 mg/mL matrix gel for 72 hours. The supernatant was then refreshed with PHH culture medium containing different concentrations of testing compounds for two times with 72-hour interval. At the end of treatment, the supernatant was collected for viral markers measurements, including HBsAg, HBeAg, HBV DNA and cytotoxicity. HBsAg and HBeAg were detected using alphalisa method using their specific antibodies. For HBV DNA detection, HBV DNA Quantitative Fluorescence Diagnostic Kit (Sansure Biotech Inc.) was used following the manufacture's protocol. Cytotoxicity was determined using Cell Counting Kit-8 (CCK8, Dojindo Molecular Technologies, Inc.).
(§2) The compounds of the present invention were tested for their capacity to inhibit HBsAg and HBeAg as described herein.

HBsAg = test: PHH HBV natural infection assay, HBsAg (alphalisa); details: Hepatitis B virus, Hepatocyte, read-out: HBsAg IC50
Protocol: as §1, §2

[1] = Cytotoxicity in PHH natural infection assay (Cell Counting Kit-8); details: HBV-infected primary human hepatocytes, CCK8
Protocol: as §1

Structure (SMILES) | IC50 (HBeAg) [µM] | IC50 (HBsAg) [µM] | CC50 at 144 h [1] [µM]
O=C(NC1CCC2(CC1)CCN(c1nc3cc(Cl)ccc3o1)CC2)C1CCCS(=O)(=O)C1 (stereo not drawn) [Example 100, N-[3-(5-chloro-1,3-benzoxazol-2-yl)-3-azaspiro[5.5]undecan-9-yl]-1,1-dioxo-thiane-3-carboxamide] | 1.72 | 2.44 | > 100
CCS(=O)(=O)c1ccc(C(=O)NC2CCC3(CC2)CCN(c2nc4cc(Cl)ccc4o2)CC3)o1 [Example 117, N-[3-(5-chloro-1,3-benzoxazol-2-yl)-3-azaspiro[5.5]undecan-9-yl]-5-ethylsulfonyl-furan-2-carboxamide] | 2.91 | 2.37 | > 100
O=C(NC1CCC2(CC1)CCN(c1nc3cc(Cl)ccc3o1)CC2)C1CCOC1 (stereo not drawn) [Example 86, N-[3-(5-chloro-1,3-benzoxazol-2-yl)-3-azaspiro[5.5]undecan-9-yl]tetrahydrofuran-3-carboxamide] | 2.8 | 2.89 | 82.7
O=C(NC1CCC2(CC1)CCN(c1nc3cc(Cl)ccc3o1)CC2)C1CCC(F)(F)C1 (stereo not drawn) [Example 101, N-[3-(5-chloro-1,3-benzoxazol-2-yl)-3-azaspiro[5.5]undecan-9-yl]-3,3-difluoro-cyclopentanecarboxamide] | 4.29 | 4.16 | > 100
O=C(NC1CCC2(CC1)CCN(c1nc3ccc(Cl)cc3o1)CC2)C1CCS(=O)(=O)CC1 [Example 97, N-[3-(6-chloro-1,3-benzoxazol-2-yl)-3-azaspiro[5.5]undecan-9-yl]-1,1-dioxo-thiane-4-carboxamide] | 2.48 | 3.52 | > 100
O=C(NC1CC2(C1)CN(c1nc3cc(Cl)ccc3o1)C2)C1CCS(=O)(=O)CC1 [Example 36, N-[2-(5-chloro-1,3-benzoxazol-2-yl)-2-azaspiro[3.3]heptan-6-yl]-1,1-dioxo-thiane-4-carboxamide] | 4.03 | 8.28 | > 100
CS(=O)(=O)N1CCC(C(=O)NCC2CCN(c3nc4cc(Cl)ccc4o3)CC2)CC1 [Example 15, N-[[1-(5-chloro-1,3-benzoxazol-2-yl)-4-piperidyl]methyl]-1-methylsulfonyl-piperidine-4-carboxamide] | 3.64 | 3.97 | > 10
O=C(NC1CCC2(CC1)CCN(c1nc3ccccc3o1)CC2)c1ccnc(S(=O)(=O)C2CC2)c1 [Example 110, N-[3-(1,3-benzoxazol-2-yl)-3-azaspiro[5.5]undecan-9-yl]-2-cyclopropylsulfonyl-pyridine-4-carboxamide] | 5.58 | 5.84 | > 10
C[S@@](=N)(=O)c1ccc(C(=O)NC2CC3(C2)CN(c2nc4cc(Cl)ccc4o2)C3)o1 [Example 63, N-[2-(5-chloro-1,3-benzoxazol-2-yl)-2-azaspiro[3.3]heptan-6-yl]-5-[(R)-methylsulfonimidoyl]furan-2-carboxamide] | 1.42 | 2.47 | > 100
CC1(NC(=O)c2ccc(S(C)(=O)=O)o2)CC2(CN(c3nc4cc(Cl)ccc4o3)C2)C1 [Example 67, N-[2-(5-chloro-1,3-benzoxazol-2-yl)-6-methyl-2-azaspiro[3.3]heptan-6-yl]-5-methylsulfonyl-furan-2-carboxamide] | 2.13 | 1.77 | > 100
O=C(NC1CC2(CCN(c3nc4cc(Cl)ccc4o3)CC2)C1)C1CCS(=O)(=O)C1 (stereo not drawn) [Example 76, N-[7-(5-chloro-1,3-benzoxazol-2-yl)-7-azaspiro[3.5]nonan-2-yl]-1,1-dioxo-thiolane-3-carboxamide] | 2.27 | 2.26 | > 100
N=S(=O)(CC1CC1)c1ccc(C(=O)NC2CC3(C2)CN(c2nc4cc(Cl)ccc4o2)C3)o1 (stereo not drawn) [Example 57, N-[2-(5-chloro-1,3-benzoxazol-2-yl)-2-azaspiro[3.3]heptan-6-yl]-5-(cyclopropylmethylsulfonimidoyl)furan-2-carboxamide] | 0.953 | 0.996 | > 100
C[S+]([O-])c1ccc(C(=O)NC2CCC3(CC2)CCN(c2nc4cc(Cl)ccc4o2)CC3)o1 (stereo not drawn) [Example 116, N-[3-(5-chloro-1,3-benzoxazol-2-yl)-3-azaspiro[5.5]undecan-9-yl]-5-methylsulfinyl-furan-2-carboxamide] | 2.34 | 2.86 | 68.5
O=C(NC1CCC2(CCN(c3nc4cc(Cl)ccc4o3)C2)C1)C1CCS(=O)(=O)C1 (stereo not drawn) [Example 74, N-[2-(5-chloro-1,3-benzoxazol-2-yl)-2-azaspiro[4.4]nonan-8-yl]-1,1-dioxo-thiolane-3-carboxamide] | 3.73 | 4.33 | > 100
O=C(NC1CCC2(CC1)CCN(c1nc3cc(Cl)ccc3o1)CC2)C1CS(=O)(=O)C1 [Example 88, N-[3-(5-chloro-1,3-benzoxazol-2-yl)-3-azaspiro[5.5]undecan-9-yl]-1,1-dioxo-thietane-3-carboxamide] | 1.25 | 1.52 | 28.9
CCOC(=O)NC1CC2(C1)CN(c1nc3cc(Cl)ccc3o1)C2 [Example 21, Ethyl N-[2-(5-chloro-1,3-benzoxazol-2-yl)-2-azaspiro[3.3]heptan-6-yl]carbamate] | 5.24 | 7.15 | > 100
O=C(NC1CCC2(CC1)CCN(c1nc3cc(Cl)ccc3o1)CC2)c1ccnc(C(F)(F)F)c1 [Example 105, N-[3-(5-chloro-1,3-benzoxazol-2-yl)-3-azaspiro[5.5]undecan-9-yl]-2-(trifluoromethyl)pyridine-4-carboxamide] | 1.03 | 1.12 | 59
CC(C)CC(=O)NC1CC2(C1)CN(c1nc3cc(Cl)ccc3o1)C2 [Example 28, N-[2-(5-chloro-1,3-benzoxazol-2-yl)-2-azaspiro[3.3]heptan-6-yl]-3-methyl-butanamide] | 2.18 | 3.31 | 76.6
Cc1cc(C(=O)NC2CC3(C2)CN(c2nc4cc(Cl)ccc4o2)C3)ccn1 [Example 45, N-[2-(5-chloro-1,3-benzoxazol-2-yl)-2-azaspiro[3.3]heptan-6-yl]-2-methyl-pyridine-4-carboxamide] | 1.3 | 2.73 | 80.1
O=C(NCC1CCN(c2nc3cc(Cl)ccc3o2)CC1)c1ccc(C(F)(F)F)nc1 [Example 2, N-[[1-(5-chloro-1,3-benzoxazol-2-yl)-4-piperidyl]methyl]-6-(trifluoromethyl)pyridine-3-carboxamide] | 6.31 | 8.1 | > 10
CS(=O)(=O)CC(=O)NC1CCC2(CC1)CCN(c1nc3cc(Cl)ccc3o1)CC2 [Example 81, N-[3-(5-chloro-1,3-benzoxazol-2-yl)-3-azaspiro[5.5]undecan-9-yl]-2-methylsulfonyl-acetamide] | 2.28 | 3.49 | 67.3
CC1(NC(=O)c2ccnc(C(F)(F)F)c2)CC2(CN(c3nc4cc(Cl)ccc4o3)C2)C1 [Example 68, N-[2-(5-chloro-1,3-benzoxazol-2-yl)-6-methyl-2-azaspiro[3.3]heptan-6-yl]-2-(trifluoromethyl)pyridine-4-carboxamide] | 4.69 | 4.35 | 86.9
O=C(NCC1CCN(c2nc3cc(Cl)ccc3o2)CC1)c1ccc(C(F)(F)F)o1 [Example 7, N-[[1-(5-chloro-1,3-benzoxazol-2-yl)-4-piperidyl]methyl]-5-(trifluoromethyl)furan-2-carboxamide] | 3.45 | 3.83 | 96.7
CCOc1cc(C(=O)NC2CC3(C2)CN(c2nc4cc(Cl)ccc4o2)C3)ccn1 [Example 49, N-[2-(5-chloro-1,3-benzoxazol-2-yl)-2-azaspiro[3.3]heptan-6-yl]-2-ethoxy-pyridine-4-carboxamide] | 1.7 | 3.1 | > 100
O=C(NC1CC2(C1)CN(c1nc3cc(Cl)ccc3o1)C2)C1CC(F)(F)C1 [Example 31, N-[2-(5-chloro-1,3-benzoxazol-2-yl)-2-azaspiro[3.3]heptan-6-yl]-3,3-difluoro-cyclobutanecarboxamide] | 6.22 | 6.98 | > 100
